From patent US20230144436A1, “MUSCLE TARGETING COMPLEXES AND USES THEREOF FOR TREATING MYOTONIC DYSTROPHY” (Dyne Therapeutics, Inc., priority 2020, published 2023)

Test system: DMPK
Assay: DMPK knockdown by transfected antisense oligonucleotides in DM1 C15 myotubes at 0.5 nM and 50 nM
Type: cell-based
Settings: 72 hours; for Normalized DMPK Remaining: relative to vehicle control = 1.00
Description: Two hundred and thirty-six oligonucleotides for targeting DMPK were generated using in silico analysis. Each individual oligonucleotide was evaluated for their ability to target DMPK in cellulo at two doses—0.5 nM (low dose) and 50 nM (high dose).
Briefly, DM1 C15 immortalized myoblasts were cultured in T-75 flasks until near confluency (˜80% confluent). Myoblasts were then disrupted with trypsin and seeded into 96-well microplates at a density of 50,000 cells/well. Cells were allowed to recover overnight before the growth media was washed out and replaced with a no-serum media to induce differentiation into myotubes. Differentiation proceeded for seven days prior to treatment with DMPK-targeting oligonucleotides.
On day seven following induction of differentiation, DM1 C15 myotubes were transfected with an individual oligonucleotide using 0.3 μL of Lipofectamine MessengerMax per well. All oligonucleotides were tested at both 0.5 nM and 50 nM final concentrations in biological triplicates. After treatment with oligonucleotides, cells were incubated for 72 hours prior to being harvested for total RNA. cDNA was synthesized from the total RNA extracts and qPCR was performed to determine expression levels of DMPK in technical quadruplicate. All qPCR data were analyzed using a traditional […] method and were normalized to a plate-based negative control that comprised cells treated with vehicle control (0.3 μL/well Lipofectamine MessengerMax without any oligonucleotide). Results from these experiments are shown in Table 10. ‘Normalized DMPK Remaining’ for each antisense oligonucleotide in Table 10 refers to the expression level of DMPK in cell treated with said antisense oligonucleotide relative to the negative control that comprised cells treated with vehicle control (wherein the expression level of the negative control has been normalized to equal 1.00)

[1] = 0.5 nM oligonucleotide, qPCR, relative to vehicle control
[2] = 50 nM oligonucleotide, qPCR, relative to vehicle control

Substance	Percent DMPK Reduction [1] [%]	Normalized DMPK Remaining (0.5 nM oligonucleotide, qPCR)	Percent DMPK Reduction [2] [%]	Normalized DMPK Remaining (50 nM oligonucleotide, qPCR)	Percent DMPK Reduction (0.5 nM oligonucleotide) [%]	Normalized DMPK Remaining (0.5 nM oligonucleotide)	Percent DMPK Reduction (50 nM oligonucleotide) [%]	Normalized DMPK Remaining (50 nM oligonucleotide)
267 (CUUGUUCAUGAUCUUCAUGG; chemistry not given here) [compound 267]	16.06	0.84	49.47	0.51	–	–	–	–
423 (GGCUCAGGCUCUGCCGGGUG; chemistry not given here) [compound 423]	–	–	–	–	7.38	0.93	65.82	0.34
380 (UGCCCAUAGAACAUUUCAUA; chemistry not given here) [compound 380]	–	–	–	–	7.67	0.92	34.56	0.65
345 (AAGCGCCUCCGAUAGGCCAG; chemistry not given here) [compound 345]	8.91	0.91	43.93	0.56	–	–	–	–
395 (AAGGGCGUCUGCCCAUAGAA; chemistry not given here) [compound 395]	–	–	–	–	13.15	0.87	34.56	0.65
381 (UAGUUCUCAUCCUGGAAGGC; chemistry not given here) [compound 381]	–	–	–	–	16.83	0.83	43.88	0.56
461 (CGGAGACCAUCCCAGUCGAG; chemistry not given here) [compound 461]	–	–	–	–	14.08	0.86	79.93	0.20
347 (GCUCAGCAGUGUCAGCAGGU; chemistry not given here) [compound 347]	29.18	0.71	73.46	0.27	–	–	–	–
418 (GUAGUUGACUGGCGAAGUUC; chemistry not given here) [compound 418]	–	–	–	–	7.50	0.93	45.33	0.55
247 (GGGCCCGGAUCACAGGACUG; chemistry not given here) [compound 247]	57.97	0.42	61.96	0.38	–	–	–	–
259 (CAGCUGCGUGAUCCACCGCC; chemistry not given here) [compound 259]	19.03	0.81	68.34	0.32	–	–	–	–
468 (CGAGAGCAGCGCAAGUGAGG; chemistry not given here) [compound 468]	–	–	–	–	-2.19	1.02	37.11	0.63
406 (ACAGGUAGUUCUCAUCCUGG; chemistry not given here) [compound 406]	–	–	–	–	20.51	0.79	85.36	0.15
